Data reported in publication PMC9019904, “AD Informer Set: Chemical tools to facilitate Alzheimer's disease drug discovery” (Alzheimer's & Dementia : Translational Research & Clinical …, 2022).

Columns and labels:
[1] = test system: HMC3 (human microglia) cell line; assay: pHrodo-myelin phagocytosis/cell viability high content imaging assay: phagocytosis signal; format: cell-based; settings: HMC3 cells, 10 uM compound, 48 hours treatment, pHrodo-myelin final 20 hours
Procedure, shortened: (§1)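 Imaging at high content captured pHrodo-myelin uptake about 22 hours after its addition, alongside a viability read-out from the same cells. Three measurements were derived, with intensity increase marking early apoptosis and decrease marking later apoptosis.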

[2] = test system: BV2 (mouse microglia) cell line; assay: as above; format: cell-based; settings: BV2 cells, 10 uM compound, 48 hours treatment, pHrodo-myelin final 20 hours
Procedure, shortened: as §1

[3] = test system: HMC3 (human microglia) cell line; assay: pHrodo-myelin phagocytosis/cell viability high content imaging assay: viability (cell count, nuclear area, nuclear intensity); settings: HMC3 cells, 10 uM compound, 48 hours treatment
Procedure, shortened: (§2)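 Duplicate single-point screen at 10 μM over 48 h, combined with pHrodo-myelin phagocytosis during the last 20 h. Cytotoxicity is taken from imaged cell counts and nuclear intensity changes, normalized to untreated wells as % control.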

[4] = test system: BV2 (mouse microglia) cell line; assay: as above; settings: BV2 cells, 10 uM compound, 48 hours treatment
Procedure, shortened: as §2

SMILES | 4. Phagocytosis (% control) [1] [% control] | 4. Phagocytosis (% control) [2] [% control] | 1. Cell count (% control) [3] [% control] | 2. Nuclear Area (% Control) [3] [% Control] | 3. Nuclear DNA Intensity (% control) [3] [% control] | 1. Cell count (% control) [4] [% control] | 2. Nuclear Area (% Control) [4] [% Control] | 3. Nuclear DNA Intensity (% control) [4] [% control]
C=C(c1ccc(C(=O)O)cc1)c1cc2c(cc1C)C(C)(C)CCC2(C)C [UNC10302949A] | 79.3 | 117.0 | 131.9 | 99.3 | 94.9 | 91.0 | 109.3 | 95.6
Cl.NCCOCCOCCNC(=O)Cc1ccc(Nc2nc(NCc3ccc(F)cc3)nc(NCC3CCCCC3)n2)cc1 [UNC10302950A] | 36.3 | 232.8 | 97.2 | 95.7 | 118.1 | 46.4 | 117.0 | 104.0
CC(C)CCC[C@@H](C)[C@H]1CC[C@H]2[C@@H]3CC[C@H]4C[C@H](N)CC[C@]4(C)[C@H]3CC[C@]12C [UNC10302970A] | 40.9 | 160.9 | 97.2 | 81.8 | 134.0 | 18.3 | 108.5 | 93.1
CCCCCOc1cc2c(cc1-c1cc(/C=C/C(=O)O)ccc1O)C(C)(C)CCC2(C)C [UNC10302971A] | 107.7 | 103.8 | 103.0 | 101.2 | 101.8 | 104.0 | 103.5 | 104.7
Cc1c(COc2cc(OCc3cccc(C#N)c3)c(CN3C[C@H](O)C[C@@H]3C(=O)O)cc2Cl)cccc1-c1ccc2c(c1)OCCO2 [UNC10302972A] | 111.9 | 125.1 | 116.0 | 98.5 | 101.3 | 81.0 | 106.7 | 113.8
N#CC(CCCN1CCN(/N=C/c2cccnc2)CC1)(c1ccccc1)c1ccccc1 [UNC10302973A] | 84.2 | 132.9 | 118.4 | 102.3 | 89.1 | 73.0 | 106.0 | 96.8
Cl.O=C(O)Cc1cccc(OCCCN(Cc2cccc(C(F)(F)F)c2Cl)CC(c2ccccc2)c2ccccc2)c1 [UNC10302974A] | 78.3 | 136.8 | 138.8 | 100.4 | 95.2 | 123.1 | 107.6 | 102.2
CCn1c(=O)/c(=C2\Sc3ccccc3N2C)s/c1=C\c1ccccn1 [UNC10302975A] | 87.9 | 118.8 | 120.1 | 99.3 | 95.9 | 107.1 | 104.2 | 108.3
